From USRE39197E1, “Cell adhesion-inhibiting antiinflammatory and immune-suppressive compounds” (Abbott Laboratories, priority 1998, dated 2006)

Tests used:
[1] = test system: adherence of JY-8 cells (expressing LFA-1) to immobilized ICAM-1; assay: ICAM-1/JY-8 Cell Adhesion Assay; type: cell-based, human
Procedure: ICAM-1/JT-8 Cell Adhesion Assay
For measurment measurement of inhibotory inhibitory activity in the cell-based adhesion assay, 96-well microtiter plates are were coated with 70 μL of recombinat recombinant ICAM-1/Ig (ICOS Corporation) at a concentration of 5 μg/mL in D-PBS w/o without Ca^++ or Mg++ or Mg^++ overnight at 4° C. The wells are were then washed twice with D-PBS and blocked by addition of 200 μL of D-PBS, 5% fish skin gelatin by incubation for 1 hour at room temperature. […] The percent inhibition of a candidate compound at a given concentration is was calculated using the following equation: [formula] and these concentration/inhibition data are were used to generate does response curves, from which IC50 values are were derived.

[2] = target: T1, interaction between the integrin LFA-1 and its adhesion partner ICAM-1 (Homo sapiens, UniProt P20701); assay: ICAM-1/LFA-1 Biochemical Interaction Assay; type: binding; details: 4 μM compound; recombinant LFA-1, biotinylated ICAM-1/Ig
T1 construct: Recombinant LFA-1 (100 μL of 0.7 μg/ml mL, ICOS Corporation) in D-PBS; purchased ICOS Corporation
Procedure: Compounds that antagonize the interaction between ICAM-1 and LFA-1 can be identified, and their activities quantitated, using both biochemical and cell-based adhesion assays. A primary biochemical assay measures the ability of the compound in question to block the interaction between the integrin LFA-1 and its adhesion partner ICAM-1, as described below:
ICAM-1/LFA-1 Biochemical Interaction Assay
In the biochemical assay, 100 μL of anti-LFA-1 antibody (ICOS Corporation) at a concentration of 5 μg/ml mL in Dulbecco's phosphate-buffered saaline (D-PBS) is used to coat wells of a 96-well microtiter plate overnight at 4° C. The wells are were then washed twice with wash buffer (D-PBS w/o Ca^++ or Mg^++, 0.05% Tween 20) and blocked by addition of 200 μL of D-PBS, 5% fish skin gelatin. Recombinant LFA-1 (100 μL of 0.7 μg/ml mL, ICOS Corporation) in D-PBS is was then added to each well. Incubation continues continued for 1 hour at room temperature and the wells are were washed twice with wash buffer. Serial dilutions of compounds being assayed as ICAM-1/LFA-1 antagonists, were prepared as 10 mM stock solutions in dimethyl sulfoxide (DMSO), are were diluted in D-PBS, 2 mM MgCl2, 1% fish skin gelatin and 50 μL of each dilution was added to duplicate wells. This is was followed by the addition of 50 μL of 0.8 μg/ml mL biotinylated recombinant ICAM-1/Ig (ICOS Corporation) to the wells and the plates are were incubated at room temperature for 1 hour. The wells are were then washed twice with wash buffer and 100 μL of Europium-labeled Streptavidin (Wallac Oy) diluted 1:100 in Delfia assay buffer (Wallac Oy), are was then added to the wells. Incubation proceeds proceeded for 1 hour at room temperature. The wells are were washed eight times with wash buffer and 100 μL of enhancement solution (Wallac Oy, cat. No. 1244-105) are was added to each well. Incubation proceeds proceeded for 5 minutes with constant mixing. Time-resolved fluorimetry measurements are were made using the a Victor 1420 Multilabel Counter (Wallac Oy) and the percent inhibition of each candidate compound is was calculated using the following equation: [formula] where “background” refers to wells that are were not coated with anti-LFA-1 antibody.

[3] = Homo sapiens, JY-8, JY-8 cells on immobilized ICAM-1/Ig
[4] = JY-8 cells on immobilized ICAM-1/Ig

T1 sequence (P20701 26-1170): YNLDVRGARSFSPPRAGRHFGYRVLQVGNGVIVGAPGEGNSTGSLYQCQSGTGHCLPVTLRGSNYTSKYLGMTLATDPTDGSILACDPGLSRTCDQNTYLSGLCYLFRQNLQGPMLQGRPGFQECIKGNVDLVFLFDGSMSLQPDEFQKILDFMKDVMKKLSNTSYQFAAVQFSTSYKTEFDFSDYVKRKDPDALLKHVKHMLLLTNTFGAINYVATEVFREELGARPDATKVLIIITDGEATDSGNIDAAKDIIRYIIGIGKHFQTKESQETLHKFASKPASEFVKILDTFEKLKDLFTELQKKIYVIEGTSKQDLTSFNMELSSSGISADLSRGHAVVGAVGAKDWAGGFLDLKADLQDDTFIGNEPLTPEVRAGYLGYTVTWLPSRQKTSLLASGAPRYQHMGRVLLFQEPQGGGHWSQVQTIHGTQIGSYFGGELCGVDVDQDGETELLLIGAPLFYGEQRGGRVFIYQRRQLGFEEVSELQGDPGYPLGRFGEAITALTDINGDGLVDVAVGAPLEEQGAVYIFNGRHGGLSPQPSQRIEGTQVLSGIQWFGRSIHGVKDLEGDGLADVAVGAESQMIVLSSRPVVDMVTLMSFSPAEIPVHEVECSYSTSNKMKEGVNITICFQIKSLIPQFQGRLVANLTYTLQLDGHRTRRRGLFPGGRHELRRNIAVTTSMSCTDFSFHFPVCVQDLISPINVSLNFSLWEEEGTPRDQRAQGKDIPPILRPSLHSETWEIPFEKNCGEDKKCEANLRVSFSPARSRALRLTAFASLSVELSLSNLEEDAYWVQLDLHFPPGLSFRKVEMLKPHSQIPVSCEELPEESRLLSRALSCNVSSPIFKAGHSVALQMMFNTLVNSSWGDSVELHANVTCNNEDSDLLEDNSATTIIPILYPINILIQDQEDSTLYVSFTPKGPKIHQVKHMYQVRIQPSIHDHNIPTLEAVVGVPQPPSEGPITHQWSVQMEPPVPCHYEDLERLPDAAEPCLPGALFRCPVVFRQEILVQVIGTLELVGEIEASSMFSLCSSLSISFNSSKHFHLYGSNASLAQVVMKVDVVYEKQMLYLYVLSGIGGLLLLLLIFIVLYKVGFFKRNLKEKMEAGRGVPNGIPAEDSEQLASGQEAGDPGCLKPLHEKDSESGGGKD
T1 sequence (P05107 23-769 partner): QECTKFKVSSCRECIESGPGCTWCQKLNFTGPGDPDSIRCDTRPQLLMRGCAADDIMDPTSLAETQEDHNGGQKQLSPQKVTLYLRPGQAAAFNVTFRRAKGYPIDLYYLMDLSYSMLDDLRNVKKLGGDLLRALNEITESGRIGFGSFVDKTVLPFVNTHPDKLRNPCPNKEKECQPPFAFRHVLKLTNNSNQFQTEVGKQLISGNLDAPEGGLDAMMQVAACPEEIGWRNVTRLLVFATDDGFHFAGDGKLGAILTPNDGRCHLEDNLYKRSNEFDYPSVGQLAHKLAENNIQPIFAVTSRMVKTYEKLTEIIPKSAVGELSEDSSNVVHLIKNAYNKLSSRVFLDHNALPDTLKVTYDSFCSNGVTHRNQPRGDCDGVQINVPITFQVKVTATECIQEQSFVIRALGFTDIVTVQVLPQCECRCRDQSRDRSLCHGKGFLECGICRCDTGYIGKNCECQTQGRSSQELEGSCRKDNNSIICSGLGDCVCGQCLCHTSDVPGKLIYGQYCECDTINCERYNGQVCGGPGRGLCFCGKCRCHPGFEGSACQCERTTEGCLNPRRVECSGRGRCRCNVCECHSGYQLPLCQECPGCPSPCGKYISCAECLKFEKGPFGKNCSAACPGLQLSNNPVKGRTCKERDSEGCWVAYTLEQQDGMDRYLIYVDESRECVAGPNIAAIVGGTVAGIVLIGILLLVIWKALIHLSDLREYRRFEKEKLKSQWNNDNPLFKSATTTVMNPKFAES

Structure (SMILES) | IC50 [1, 3] [nM] | inhibition at 4 µM [2] [%] | % inhibition @ 4 μM [2] [%] | IC50 [1, 4] [nM]
O=C(/C=C/c1ccccc1Sc1ccc(Cl)cc1Cl)NCCCn1ccnc1 [Example 2, (2,4-Dichlorophenyl)[2-(E-((3-(1-imidazolyl)propylamino)carbonyl)ethenyl)phenyl]sulfide] | 13000 |  |  | 
O=C(/C=C/c1ccc(Sc2ccc(Cl)cc2Cl)c(Cl)c1)NCCCCCCO [Example 4, (2,4-Dichlorophenyl)[2-chloro-4-(E-((6-hydroxyhexylamino)carbonyl)ethenyl)phenyl]sulfide] | 680 |  |  | 
O=C(C(=O)N1CCN(C(=O)/C=C/c2ccc(Sc3ccc(Cl)cc3Cl)c([N+](=O)[O-])c2)CC1)c1ccco1 [Example 38, (2,4-Dichlorophenyl)[2-nitro-4-(E-((4-(2-furoylcarbonyl)piperazin-1-yl)carbonyl)ethenyl)phenyl]sulfide] | 250 | 91 |  | 
O=C(/C=C/c1ccc(Sc2ccc(Cl)cc2Cl)c(Cl)c1)N1CCN(CCOCCO)CC1 [Example 14] |  |  | 82 | 790
O=C(O)C1CCN(C(=O)/C=C/c2ccc(Sc3ccc(Cl)cc3Cl)c(Cl)c2)CC1 [Example 21, (2,4-Dichlorophenyl)[2-chloro-4-(E-((4-carboxypiperidin-1-yl)carbonyl)ethenyl)phenyl]sulfide] | 520 | 80 |  | 
O=C(/C=C/c1ccc(Sc2ccccc2Br)c(Cl)c1)N1CCc2ccccc2C1 [Example 25, (2-Bromophenyl)[2-chloro-4-(E-((2-tetrahydroisoquinolinyl)carbonyl)ethenyl)phenyl]sulfide] |  |  | 82 | 11000
O=C(O)C(=O)N1CCN(C(=O)/C=C/c2ccc(Sc3ccc(Cl)cc3Cl)c([N+](=O)[O-])c2)CC1 [Example 43, (2,4-Dichlorophenyl)[2-nitro-4-(E-((4-(carboxycarbonyl)piperazin-1-yl)carbonyl)ethenyl)phenyl]sulfide] | 100 | 82 |  | 
O=C(/C=C/c1ccc(Sc2ccc(Cl)cc2Cl)c(Cl)c1)N1CCN(CCO)CC1 [Example 13] |  |  | 79 | 1100
O=C(/C=C/c1ccc(Sc2ccc(Cl)cc2Cl)c(Cl)c1)NCCCN1CCCC1=O [Example 6, (2,4-Dichlorophenyl)[2-chloro-4-(E-((3-(2-oxopyrrolidin-1-yl)propylamino)carbonyl)ethenyl)phenyl]sulfide] | 660 | 85 |  | 
Cc1ccccc1Sc1ccc(/C=C/C(=O)NC2CC2)cc1C(F)(F)F [Example 31, (2-Methylphenyl)[2-trifluoromethyl-4-(E-((cyclopropylamino)carbonyl)ethenyl)phenyl]sulfide] |  | 92 |  | 
O=C(/C=C/c1ccc(Sc2ccccc2CN2CCOCC2)c(Cl)c1)N1CCOCC1 [Example 53, (2-(1-Morpholinylmethyl)phenyl)[2-chloro-4-(E-((1-morpholinyl)carbonyl)ethenyl)phenyl]sulfide] |  |  |  | 700
O=C(/C=C/c1ccc(Sc2ccc(Cl)cc2Cl)c(Cl)c1)N1CCN(c2ccccn2)CC1 [Example 10, (2,4-Dichlorophenyl)[2-chloro-4-(E-((4-(2-pyridyl)piperazin-1-yl)carbonyl)ethenyl)phenyl]sulfide] | 1500 |  |  | 
O=C(/C=C/c1ccc(Sc2ccc(Cl)cc2Cl)c(Br)c1)N1CCOCC1 [Example 64, (2,4-Dichlorophenyl)[2-bromo-4-(E-((1-morpholinyl)carbonyl)ethenyl)phenyl]sulfide] |  |  | 81 | 
O=CN1CCN(Cc2ccccc2Sc2ccc(/C=C/C(=O)N3CCOCC3)cc2Cl)CC1 [Example 58, (2-(4-Formylpiperazin-1-ylmethyl)phenyl)[2-chloro-4-(E-((1-morpholinyl)carbonyl)ethenyl)phenyl]sulfide] |  |  |  | 1600
O=C(/C=C/c1ccc(Sc2ccc(Cl)cc2Cl)c([N+](=O)[O-])c1)NCCCN1CCCC1=O [Example 33, (2,4-Dichlorophenyl)[2-nitro-4-(E-((3-(2-oxopyrrolidin-1-yl)propylamino)carbonyl)ethenyl)phenyl]sulfide] | 300 |  |  | 
